According to article PMC5638327, “Comparison of bioavailability and antiplatelet action of ticagrelor in patients with ST-elevation myocardial infarction and non-ST-elevation myocardial infarction: A prospective, observational, single-centre study” (PLoS ONE, 2017):

Key:
[1] = Pharmacokinetic assessment: plasma concentrations by liquid chromatography tandem mass spectrometry after ticagrelor loading dose; type: in vivo, human (patients with myocardial infarction); settings: for AUC(0–6) / AUC(0–12): oral 180 mg ticagrelor LD, plasma, median [interquartile range]
Procedure: Consecutive STEMI and NSTEMI patients admitted to the study site (Cardiology Department, Dr. A. Jurasz University Hospital, Bydgoszcz, Poland) were screened for eligibility. After admission to the study centre, confirmation of the initial diagnosis of STEMI or NSTEMI, and provision of a written informed consent to participate in the trial, all study participants received an oral 300 mg LD of plain aspirin (Polpharma SA, Starogard Gdański, Poland) and 180 mg LD ticagrelor in integral tablets with 250 mL tap water. Subsequently, within 15 minutes of ticagrelor LD, all patients underwent coronary angiography followed by PCI as required. During the periprocedural period, all study participants received unfractionated heparin in body weight adjusted dose according to the European Society of Cardiology (ESC) recommendations. Plasma concentrations of ticagrelor and its active metabolite, as well as their antiplatelet effect, were evaluated according to the sampling schedule employed at our centre in previous PK/PD study (pre-treatment, 0.5 h, 1 h, 2 h, 3 h, 4 h, 6 h and 12 h post ticagrelor LD).
Blood samples for PK/PD evaluation were obtained from an 18-gauge cannula inserted into one of the forearm veins. The first 5 mL blood was discarded to avoid spontaneous platelet activation. In each patient specimens were collected at the eight pre-defined time. Detailed description of blood sample processing has been published in the study protocol (S1 File).
Ticagrelor and AR-C124910XX plasma concentrations were analyzed with liquid chromatography coupled with tandem mass spectrometry, using a validated method. Lower limits of quantification were 4.69 ng/mL for both ticagrelor and AR-C124910XX.
Statistical calculations were performed using the Statistica 12.5 package (StatSoft, Tulsa, OK, USA). Pharmacokinetic calculations and plots were made using the Matlab R2014 software (Mathworks, Natick, MA, USA); trapezoidal rule was applied to calculate AUC. Data for pharmacokinetic features of ticagrelor and AR-C124910XX, pharmacodynamic outcome variables, creatinine, glomerular filtration rate and left ventricle ejection fraction were presented as medians and interquartile ranges. Data for heart rate, systolic and diastolic blood pressure, age and body mass index were presented as means with standard deviations. […] Continuous variables were compared between both study groups with the Student’s t-test and Mann-Whitney U test, depending on the presence or absence of the normal distribution (as assessed by the Shapiro-Wilk test). Comparisons between categorical variables were performed by the chi-square test, with Yates's correction if necessary, or using Fisher's exact test. […]
Blood samples for pharmacokinetic and phar- infarction; PCI, percutaneous coronary intervention; PD, macodynamic assessment will be drawn at eight prede- pharmacodynamics; PK, pharmacokinetics; STEMI, ﬁned time points according to the blood sampling ST-elevation myocardial infarction. schedule already used at our site in a previous study
( pretreatment baseline, 30 min, 1, 2, 3, 4, 6 andsamples will be stored at temperature below −60°C until 12 hours post-ticagrelor LD— as shown in ﬁgure 1). 31 analysed.
All enrolled patients with ﬁnally unconﬁrmed initial Venous blood for the assessment of pharmacodynam-diagnosis of AMI will be excluded from the primar y ana- ics with the vasodilator-stimulated phosphoprotein lysis. Patients qualiﬁed for urgent coronar y arter y bypass (VASP) assay and multiple electrode aggregometr y surgery within the blood sampling period also will not (MEA) will be collected into trisodium citrate and be included in the analysis. All study participants not hirudin vacuum test tubes, respectively. The ﬁrst 3–5mL receiving PCI will be reported. of blood will be discarded to avoid spontaneous platelet Study population activation. The pharmacodynamic analysis will be per- […]

[2] = parameters: method as in PMID 20551239; settings: blood plasma, after ticagrelor; cited from earlier work
platelet reactivity [3] = system: platelet reactivity; parameters: method as in PMID 27885888; settings: STEMI patients, first hour after ticagrelor LD, parenteral; cited from earlier work
platelet reactivity [4] = system: platelet reactivity; parameters: method as in PMID 27366874; settings: STEMI patients on prasugrel with concomitant morphine, intravenous; cited from earlier work

CCCSc1nc(N[C@@H]2C[C@H]2c2ccc(F)c(F)c2)c2nnn([C@@H]3C[C@H](O)[C@@H](O)[C@H]3O)c2n1 [AR-C124910XX]
AUC(0–6) ([1]; NSTEMI patients (n = 24)): 712 [346–1616] ng*h/mL | AUC(0–12) ([1]; NSTEMI patients): 1523 [1005–2867] ng*h/mL | AUC(0–6) ([1]; STEMI patients (n = 49)): 473 [0–924] ng*h/mL | AUC(0–12) ([1]; STEMI patients): 1383 [766–2182] ng*h/mL | lower AUC(0–6) in STEMI than in NSTEMI patients ([1]; first 6 h after 180 mg ticagrelor LD): 34% | plasma concentration relative to the main compound [2]: 30–40%

CSCCNc1nc(SCCC(F)(F)F)nc2c1ncn2[C@@H]1O[C@H](COP(=O)(O)OP(=O)(O)C(Cl)(Cl)P(=O)(O)O)[C@@H](O)[C@H]1O [cangrelor]
effect on platelet reactivity and HPR (platelet reactivity [3]): markedly reduced platelet reactivity and basically eliminated HPR phenomenon

B1: abciximab (antibody, chains of the INN, looked up, V domains shown)
VH: EVQLQQSGTVLARPGASVKMSCEASGYTFTNYWMHWVKQRPGQGLEWIGAIYPGNSDTSYIQKFKGKAKLTAVTSTTSVYMELSSLTNEDSAVYYCTLYDGYYVFAYWGQGTLVTVSA
VL: EIVLTQSPVTLSVTPGDSVSLSCRASRDISNNLHWFQQTSHESPRLLIKYASQSMSGIPSRFSGSGSGTDFTLSINSVETEDFGMYFCQQTNSWPYTFGGGTKLEIK
modifications: Fab
platelet inhibition (platelet reactivity [4]): immediate and efficient platelet inhibition
